According to PMC7932537, “Quantitative profiling of protease specificity” (PLoS Computational Biology, 2021):

system: MMP-2; test: Substrate phage display with NGS: relative probability (RP) of P3-P1' tetramer clusters; type: biochemical, human; conditions: MMP2 - no binning; average relative probability (RP) of the P3-P1' tetramer; redundant tetramers have been averaged out

Point of comparison: MQNL, avg_RP 23.8708. Against it:
- THHL — lower, 0.3701
- PMNL — higher, 32.5586
- ASRL — lower, 6.8948
- PASM — higher, 32.7286
- GMAL — lower, 1.3132
- VWHL — lower, 10.1663
- ALNM — lower, 13.7479
- VMYL — lower, 5.0318
- LFHL — lower, 2.7376
- VAWL — higher, 32.2185
- VLPL — lower, 20.3086
- ILHL — lower, 15.3505
- VDQL — lower, 0.0432
- AKPL — lower, 20.8275
- TWRL — lower, 0
- VWGL — lower, 12.3495
- AWAL — lower, 14.3616
- FQWL — lower, 13.3419

same assay, conditions: MMP2 - no binning; average relative probability of the P3-P1' tetramer; redundant tetramers have been averaged out

Point of comparison: PMLL, avg_RP 14.7282. Against it:
- ARFL — lower, 8.5771
- LWKL — lower, 0
- MDLL — lower, 0.2864
- PHSM — higher, 24.6739
- ASHM — lower, 12.3873
- LTHL — lower, 4.2994
- LSNL — higher, 32.5007
- PLTI — higher, 16.7446
- TYAL — lower, 5.848
- ALNL — higher, 17.2813
- WAHL — lower, 7.453
- LYHL — lower, 4.5289
- PHLL — higher, 16.4802
- WLPI — lower, 0.6666
- AQNL — higher, 19.4627
- PNYI — lower, 6.6891
- ISFM — higher, 23.3965
- FRML — lower, 0.2112
- IESM — lower, 2.7483
- YMNI — lower, 0
- IYEL — lower, 0.2382
- MLHM — lower, 4.7134
- PVGL — higher, 35.2016
- PIML — higher, 15.4441
- MFHL — lower, 0.052
- VLNM — higher, 19.025
- LAHV — lower, 11.7405
- VWLL — lower, 0.5351
- YANM — higher, 22.6837
- GAAL — higher, 15.7207
- VRNW — higher, 17.7682
- SGML — lower, 1.3118
- VEYL — lower, 5.3014
- WYGM — lower, 0.0531
- AGAL — higher, 19.769
- VRSL — lower, 12.3051

same assay, conditions: MMP2 - no binning; average relative probability of the tetramer; redundant tetramers averaged out

Point of comparison: VRAI, avg_RP 26.2338. Against it:
- VKGM — lower, 15.5854
- VVWY — lower, 9.9375
- PVHY — lower, 23.3589
- VWAI — lower, 3.2193
- MESL — lower, 8.7752
- VRQL — lower, 16.7722
- PNYL — lower, 17.2533
- PIEL — lower, 20.545
- AYNF — lower, 6.7246
- PSAM — higher, 32.7825
- PYAM — higher, 28.0901
- PLVY — lower, 0.5489
- PIHM — lower, 18.8886
- ARNL — lower, 24.6947
- PAPM — higher, 30.2085
- ISNW — lower, 26.0602
- WRAF — lower, 9.8395
- VKWL — lower, 19.0036
- LAAI — higher, 28.8382
- GSHL — lower, 4.2785
- MGRL — lower, 18.6873
- TLAL — lower, 1.9537
- ISAL — higher, 31.8319
- WSSL — lower, 16.6561
- PAAL [P3-P1' tetramer cluster] — higher, 35.8015
- FGAL — lower, 25.0961
- VFSL — lower, 9.6313
- PHYL — lower, 24.5149
- WAHI — lower, 0.0575
- PESL — lower, 26.0767
- PNFL — lower, 15.743
- ANAL — lower, 20.3526
- PQWM — higher, 29.0885
- GSGL — lower, 1.9698
- MGHL — higher, 26.7019
- PSAL [P3-P1' tetramer cluster] — higher, 36.1873
- ISWM — higher, 28.3587
- IALL — lower, 16.3586
- VRWS — lower, 8.0593
- PQWI — higher, 28.1021
- VRDL — lower, 21.7219
- PVNL — higher, 34.508
- YNHL — lower, 3.693

same assay, conditions: tetramer annotation of MMP-2 cleavage sites in physiologic substrates from MEROPS

In the case of FSRI, the “relative probability (RP)” value is reported as 0.35.

same assay, conditions: tetramer clusters unique to the MMP-2 selectome, MMP-2 RP

Point of comparison: MANL [P3-P1' tetramer cluster], relative_probability 32.42. Against it:
- YAAL [P3-P1' tetramer cluster] — lower, 30.40

same assay, conditions: tetramer probability in MMP2 set / naive library; 200 nM protease, 2 h, 37°C

Point of comparison: PSAL [P3-P1' tetramer cluster], “relative probability (RP)” value 36.1873. Against it:
- PAAL [P3-P1' tetramer cluster] — lower, 35.8015

same assay, conditions: tetramer projected onto MMP-2 cleavage sites determined by Prudova et al. (2010)

Point of comparison: PSAL [P3-P1' tetramer cluster], “relative probability (RP)” value 36.19. Against it:
- PAAL [P3-P1' tetramer cluster] — lower, 35.8
